From article PMC3210965 (Chemical research in toxicology, 2011)
Converted amounts (≈) assume the structure as drawn. Where two headings read alike, the source gives them in different places.

Experiments:
[1] = biological target: T1, TrxR activity in HeLa cells (Homo sapiens, UniProt Q16881); assay: cell-based; conditions: for inhibition of cellular TrxR activity: 12 h
T1 sequence (Q16881 1-499 isoform Q16881-5): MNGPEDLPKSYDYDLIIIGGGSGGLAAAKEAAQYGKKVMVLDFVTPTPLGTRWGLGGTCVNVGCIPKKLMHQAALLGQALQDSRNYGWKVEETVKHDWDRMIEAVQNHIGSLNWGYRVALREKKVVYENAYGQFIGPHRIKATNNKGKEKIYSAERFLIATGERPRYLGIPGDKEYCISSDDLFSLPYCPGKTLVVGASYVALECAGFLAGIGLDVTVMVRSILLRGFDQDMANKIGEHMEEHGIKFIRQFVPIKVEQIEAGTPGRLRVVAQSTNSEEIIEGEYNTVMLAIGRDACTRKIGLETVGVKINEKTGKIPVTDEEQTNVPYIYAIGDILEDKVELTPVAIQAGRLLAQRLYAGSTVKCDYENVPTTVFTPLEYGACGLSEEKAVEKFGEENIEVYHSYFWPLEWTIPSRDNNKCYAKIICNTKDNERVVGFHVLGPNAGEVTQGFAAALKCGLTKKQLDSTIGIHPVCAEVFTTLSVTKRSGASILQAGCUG

[2] = biological target: T2, Gpx from bovine erythrocytes (Bos taurus, UniProt P00435); format: biochemical
T2 sequence (P00435 1-205): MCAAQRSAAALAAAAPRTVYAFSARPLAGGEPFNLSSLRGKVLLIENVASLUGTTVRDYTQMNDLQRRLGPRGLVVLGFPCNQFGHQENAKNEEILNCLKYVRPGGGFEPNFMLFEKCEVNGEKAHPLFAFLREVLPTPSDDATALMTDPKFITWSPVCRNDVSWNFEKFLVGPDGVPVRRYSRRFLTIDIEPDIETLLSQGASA

[3] = biological target: T3, rat TrxR (Rattus norvegicus, UniProt O89049)
T3 sequence (O89049 1-499): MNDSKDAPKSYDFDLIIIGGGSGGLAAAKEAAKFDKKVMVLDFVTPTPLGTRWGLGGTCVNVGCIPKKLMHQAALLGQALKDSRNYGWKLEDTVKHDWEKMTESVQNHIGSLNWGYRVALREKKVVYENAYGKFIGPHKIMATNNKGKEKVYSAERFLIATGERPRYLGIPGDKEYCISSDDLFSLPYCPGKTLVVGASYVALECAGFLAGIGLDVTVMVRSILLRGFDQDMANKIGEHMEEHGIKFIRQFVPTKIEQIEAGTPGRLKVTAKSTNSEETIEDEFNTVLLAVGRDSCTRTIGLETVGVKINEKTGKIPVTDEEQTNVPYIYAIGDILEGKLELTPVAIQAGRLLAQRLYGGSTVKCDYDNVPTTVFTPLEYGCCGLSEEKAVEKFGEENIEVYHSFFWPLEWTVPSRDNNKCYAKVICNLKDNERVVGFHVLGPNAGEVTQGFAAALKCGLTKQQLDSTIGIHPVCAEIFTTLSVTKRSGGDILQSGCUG

[4] = biological target: T4, TrxR C-terminus active site Sec and Cys (Rattus norvegicus, UniProt O89049)
T4 sequence (O89049 1-499): T3 sequence (O89049 1-499)

[5] = biological target: T3, rat TrxR; assay: biochemical
[6] = system: TrxR; conditions: cited from earlier work
[7] = system: HeLa cells; assay: Cell viability MTS assay; format: cell-based, human; conditions: 2 and 3 μM selenite
[8] = system: HeLa; conditions: three day continuous treatment; cited from earlier work
[9] = system: GR; conditions: cited from earlier work
[10] = HeLa, read-out: inhibition of cellular TrxR activity

C[S+]([O-])CCCCN=C=S (stereo not shown) [sulforaphane, reference compound]
effect in preliminary Se plus sulforaphane TrxR co-induction tests ([1]; HeLa cells, data not shown): potentially confounding direct inhibitory properties

CC1=CC2=C(C)C3(CC3)[C@@](C)(O)C(=O)C2=C1 [AF, acylfulvene]
drug concentration at which an increase in Gpx activity was observed [2]: ≥ 20 µM
inhibition at 0.2 µM [1, 10]: 20%
inhibition at 1 µM [1, 10]: 35%
inhibition at 4 µM [1, 10]: 60%
reversibility of TrxR inhibition (gel filtration) [3]: irreversible
intensity of BIAM label ([4]; pH 6.5): diminished in intensity
BIAM labeling ([4]; pH 8.5): almost abolished
IC50 [5]: 7.3 µM
inhibition at 50 µM ([5]; read-out: TrxR activity inhibited within five minutes): > 60%

CC1=C2C(=C[C@@](C)(CO)[C@@H]2O)C(=O)[C@](C)(O)C12CC2 [illudin S, reference compound]
drug concentration at which an increase in Gpx activity was observed [2]: ≥ 1000 µM
effect on Gpx activity [2]: none of the tested drugs caused a decrease in enzyme activity
inhibition at 0.2 µM [1, 10]: 20%
inhibition at 1 µM [1, 10]: 50%
inhibition of TrxR without pre-reduction [3]: no inhibition was observed
IC50 [5]: 260 µM

N[C@@H](Cc1ccc(N(CCCl)CCCl)cc1)C(=O)O [melphalan]
IC50, TrxR inhibition [6]: micromolar

O=[Se]([O-])[O-].[Na+].[Na+] [selenite, sodium selenite]
cytotoxicity of added selenite (cells detached from culture dish) [7]: caused cytotoxicity

O=C(O)CCCc1ccc(N(CCCl)CCCl)cc1 [chlorambucil]
IC50, TrxR inhibition [6]: micromolar

NC(=O)CI [IAA, iodoacetamide]
IC50 ([2]; read-out: IC50, inhibition of Gpx activity): 2400 µM

CC1=C(CO)C2=C(C)C3(CC3)[C@@](C)(O)C(=O)C2=C1 [HMAF, hydroxymethylacylfulvene]
drug concentration at which an increase in Gpx activity was observed [2]: ≥ 2 µM
inhibition of cellular TrxR activity ([1]; HeLa cells, 0.2 μM): 20%
inhibition of cellular TrxR activity ([1]; HeLa cells, 1 μM): 60%
inhibition of cellular TrxR activity ([1]; HeLa cells, 4 μM): eliminated cellular TrxR activity
TrxR activity inhibited within five minutes ([3]; 7.5 μM HMAF, pre-reduced TrxR, 25 °C): over 60%
reversibility of TrxR inhibition (gel filtration) ([3]; 2 h reaction, unbound drug removed by size exclusion column): irreversible
IC50 ([3]; read-out: IC50, inhibition of DTNB reduction activity of TrxR, NADPH-reduced TrxR (80 nM), 2 h at 25 °C): 0.38 µM
intensity of BIAM label ([4]; pH 6.5 (free Sec), 5 μM HMAF): diminished in intensity
BIAM labeling ([4]; pH 8.5 (free Cys and Sec), 25 μM HMAF): almost abolished
IC50, cytotoxicity [8]: 0.02 µg/mL (≈ 0.0812 µM)
type of GR inhibition [9]: irreversible
